Experimental data from ChEMBL document CHEMBL1201862, “PubChem BioAssay data set” (2004).
One block for each compound: values may come before it. Calls of active or inactive are those of the source.

How the values were obtained:
[1] = HEK293T cell cytotoxicity, dose response, cytotoxicity control, CellTiter-Glo luminescence, cherry-picked samples, set 4 (AID 743441); type: functional, cell-based; settings: HEK293
[2] = biological target: T1, Scavenger receptor class B member 1 (Mus musculus, UniProt Q61009); assay: inhibitors of SR-BI-mediated HDL uptake, dose response, cell-based, ldlA[mSR-BI] CHO, DiI fluorescence, dry powder, set 10 (AID 624029); type: functional
T1 sequence (Q61009 whole entry): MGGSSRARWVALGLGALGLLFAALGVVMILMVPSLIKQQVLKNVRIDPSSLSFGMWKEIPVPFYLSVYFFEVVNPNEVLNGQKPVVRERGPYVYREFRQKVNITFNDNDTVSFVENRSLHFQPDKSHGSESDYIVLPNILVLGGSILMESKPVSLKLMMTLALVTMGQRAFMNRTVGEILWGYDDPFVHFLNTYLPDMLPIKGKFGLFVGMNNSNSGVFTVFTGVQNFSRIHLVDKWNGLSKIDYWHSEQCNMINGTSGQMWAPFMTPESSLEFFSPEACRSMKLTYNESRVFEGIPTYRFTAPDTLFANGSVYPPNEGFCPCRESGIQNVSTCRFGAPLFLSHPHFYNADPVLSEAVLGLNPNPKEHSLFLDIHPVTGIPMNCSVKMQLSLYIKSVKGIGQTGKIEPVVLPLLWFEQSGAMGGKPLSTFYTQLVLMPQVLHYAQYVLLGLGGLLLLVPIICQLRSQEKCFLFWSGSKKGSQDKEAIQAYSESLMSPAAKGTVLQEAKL

[3] = biological target: T1, Scavenger receptor class B member 1; assay: inhibitors of SR-BI dependent HDL uptake, dose response, ldlA[mSR-BI] CHO cells, fluorescence plate reader, dry powder, set 9 (AID 623880); type: functional, cell-based
X-box-binding protein 1 = biological target: T2, X-box-binding protein 1 (Homo sapiens, UniProt P17861); type: functional, Cricetulus griseus;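 also: confirmatory dose-response counter-screen serving a CHOP assay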
T2 sequence (P17861 whole entry): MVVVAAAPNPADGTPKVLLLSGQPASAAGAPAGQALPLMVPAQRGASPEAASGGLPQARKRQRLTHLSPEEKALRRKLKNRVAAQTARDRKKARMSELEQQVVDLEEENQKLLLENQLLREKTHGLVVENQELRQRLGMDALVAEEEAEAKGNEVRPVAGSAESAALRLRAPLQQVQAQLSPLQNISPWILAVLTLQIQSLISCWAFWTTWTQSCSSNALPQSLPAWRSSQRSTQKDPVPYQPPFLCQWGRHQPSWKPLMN

[4] = biological target: T3, Polyadenylate-binding protein 1 (Homo sapiens, UniProt P11940); assay: PABP1 MLLE–PAM2 binding inhibitor potency, dose response, biochemical, fluorescence polarization, FITC-PAM2 peptide (AID 602259); type: functional; settings: read-out: IC50_Mean
T3 sequence (P11940 whole entry): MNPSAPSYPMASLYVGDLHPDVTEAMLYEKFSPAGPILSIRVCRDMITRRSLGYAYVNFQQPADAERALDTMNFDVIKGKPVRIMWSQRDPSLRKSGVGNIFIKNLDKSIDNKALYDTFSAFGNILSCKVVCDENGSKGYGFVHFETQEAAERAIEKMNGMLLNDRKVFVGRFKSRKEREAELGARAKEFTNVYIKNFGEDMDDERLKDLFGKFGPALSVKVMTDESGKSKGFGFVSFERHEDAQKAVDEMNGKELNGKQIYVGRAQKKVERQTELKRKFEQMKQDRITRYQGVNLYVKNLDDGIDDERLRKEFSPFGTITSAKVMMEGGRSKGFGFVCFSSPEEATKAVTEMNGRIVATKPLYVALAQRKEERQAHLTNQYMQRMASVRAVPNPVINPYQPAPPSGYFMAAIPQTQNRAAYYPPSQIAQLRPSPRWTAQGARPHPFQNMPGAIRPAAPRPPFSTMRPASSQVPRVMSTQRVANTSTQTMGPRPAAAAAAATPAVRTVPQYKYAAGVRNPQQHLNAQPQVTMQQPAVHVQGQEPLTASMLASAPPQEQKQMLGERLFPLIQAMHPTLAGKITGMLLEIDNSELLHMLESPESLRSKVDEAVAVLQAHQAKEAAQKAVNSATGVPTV

[5] = biological target: T3, Polyadenylate-binding protein 1; assay: PABP1 MLLE–PAM2 interaction inhibitors, dose response, miRNA deadenylation inhibitor project, biochemical, fluorescence polarization, Cy5-PAM2 peptide, secondary (AID 602260); type: functional; settings: read-out: IC50_Mean
[6] = biological target: SWI/SNF-related matrix-associated actin-dependent regulator of chromatin subfamily A member 2 (Homo sapiens, UniProt P51531); assay: Luminescence-based cell-based high throughput dose response assay to identify activators of the function of SWI/SNF related, matrix associated, actin dependent regulator of chromatin, subfamily a, member 2 (SMARCA2, BRM).; type: functional
Chain of SWI/SNF-related matrix-associated actin-dependent regulator of chromatin subfamily A member 2 (P51531 whole entry): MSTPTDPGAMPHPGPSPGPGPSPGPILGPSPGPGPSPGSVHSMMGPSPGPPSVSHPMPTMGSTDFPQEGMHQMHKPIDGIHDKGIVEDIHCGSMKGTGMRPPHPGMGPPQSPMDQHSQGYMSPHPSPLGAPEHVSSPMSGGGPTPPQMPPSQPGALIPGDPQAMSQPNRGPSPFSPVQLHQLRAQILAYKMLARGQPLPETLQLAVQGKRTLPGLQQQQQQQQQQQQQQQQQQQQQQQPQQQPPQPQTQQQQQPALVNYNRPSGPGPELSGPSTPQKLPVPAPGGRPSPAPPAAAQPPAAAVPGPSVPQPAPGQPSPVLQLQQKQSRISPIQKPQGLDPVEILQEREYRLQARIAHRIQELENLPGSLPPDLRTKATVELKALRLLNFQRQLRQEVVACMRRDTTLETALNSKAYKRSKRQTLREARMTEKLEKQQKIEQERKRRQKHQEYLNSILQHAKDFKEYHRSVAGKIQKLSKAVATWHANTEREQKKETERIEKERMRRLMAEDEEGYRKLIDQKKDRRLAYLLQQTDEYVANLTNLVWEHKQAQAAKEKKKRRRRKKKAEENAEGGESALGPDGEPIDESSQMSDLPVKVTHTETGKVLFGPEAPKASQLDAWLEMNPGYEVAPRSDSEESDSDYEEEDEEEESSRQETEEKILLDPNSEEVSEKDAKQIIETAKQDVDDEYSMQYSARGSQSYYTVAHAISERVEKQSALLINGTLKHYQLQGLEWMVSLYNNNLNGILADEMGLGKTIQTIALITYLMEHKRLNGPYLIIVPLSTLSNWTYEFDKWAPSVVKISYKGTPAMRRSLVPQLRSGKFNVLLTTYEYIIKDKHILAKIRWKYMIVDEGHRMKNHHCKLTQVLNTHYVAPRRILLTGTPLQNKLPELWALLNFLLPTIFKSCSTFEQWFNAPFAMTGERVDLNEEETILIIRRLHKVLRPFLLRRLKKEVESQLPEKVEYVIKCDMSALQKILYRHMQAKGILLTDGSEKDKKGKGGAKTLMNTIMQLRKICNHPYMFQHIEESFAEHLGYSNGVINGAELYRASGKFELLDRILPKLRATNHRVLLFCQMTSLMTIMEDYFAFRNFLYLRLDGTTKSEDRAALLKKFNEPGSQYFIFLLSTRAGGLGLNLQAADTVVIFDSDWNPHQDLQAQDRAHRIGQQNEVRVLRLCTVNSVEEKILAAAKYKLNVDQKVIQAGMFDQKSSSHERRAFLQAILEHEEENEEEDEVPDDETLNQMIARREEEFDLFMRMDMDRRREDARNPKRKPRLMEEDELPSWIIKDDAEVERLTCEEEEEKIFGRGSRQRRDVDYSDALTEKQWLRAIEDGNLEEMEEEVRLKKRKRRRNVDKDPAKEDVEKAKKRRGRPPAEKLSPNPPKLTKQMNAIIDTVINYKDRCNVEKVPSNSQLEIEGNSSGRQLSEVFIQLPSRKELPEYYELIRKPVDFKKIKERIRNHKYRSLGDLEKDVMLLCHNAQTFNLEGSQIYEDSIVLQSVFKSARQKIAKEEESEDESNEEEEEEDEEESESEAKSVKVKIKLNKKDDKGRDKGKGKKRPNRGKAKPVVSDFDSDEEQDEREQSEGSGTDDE

[7] = Counterscreen for activators of the function of SWI/SNF related, matrix associated, actin dependent regulator of chromatin, subfamily a, member 2 (SMARCA2, BRM): Luminescence-based cell-based high throughput dose response assay to identify non-selective compounds using the VP16 reporter assay.; type: functional

SMILES: CCOc1ccccc1NC(=O)c1ccc2ccccc2c1
- AC50 [1]: > 52 µM (inactive)

- AC50 [2]: 34.3 µM (active)
- AC50 [3]: 45.4 µM (active)
SMILES: O=C(O)CC(C(=O)Nc1cccc(C(F)(F)F)c1)C1CCCO1 (stereo not drawn)

SMILES: COc1ccc2c3c(cccc13)C(=O)N(O)C2=O
- Absolute IC50 (XBP1) (X-box-binding protein 1): 10 µM
- IC50 [4]: 35.2 µM (inactive)
- IC50 [5]: > 66 µM (inactive)
- EC50 [6]: 26.4 µM (inactive)
- EC50 [7]: > 91.2 µM (inactive)
